{"source": "paper PMC12320299", "about": "(Chemical Science, 2025)", "key": {"TP53": {"test_system": "TP53", "assay": "Immunofluorescence staining of TP53", "format": "cell-based, human", "conditions": "SW480, 24 h; 1a 1 μM; etoposide 100 nM", "protocol": "(§1) Cell Signaling Technology (Danvers, MA, USA), respectively. Horseradish-peroxidase-linked secondary antibodies, anti-mouse IgG (Fc specific) antibody (#7076S) and anti-rabbit IgG antibody (#7074S) were purchased from Cell Signaling Technology (Danvers, MA, USA). Anti-ß-actin (AC-15) (A5441, 1:2000) was obtained from Sigma-Aldrich (St. Louis, MO, USA).\n(§2) SW480 and CT26 cells were grown at a density of 6.7x10^4 cells/mL on 8-well glass coverslips (80841, ibidi GmbH, Gräfelfing, Germany) in 300 µL complete media. The next day, cells were treated with respective compounds for 24 h. Cells were fixed with 4%(v/v) paraformaldehyde for 15 min at RT, followed by washing, blocking and permeabilization with 5%(w/v) BSA and […]\n(§3) (1 : 500) were diluted in 1% BSA-0.3% Triton-X-100 in PBS and incubated overnight at 4 °C.\n(§4) One well was incubated without primary antibody as background control. Cells were washed and stained with secondary goat anti-mouse AlexaFlour-488 (1 : 500 dilution, A-11029, Thermo Fisher Scientific) or goat anti-rabbit AlexaFlour-488 (1 : 500 dilution, A-11034, Thermo Fisher Scientific) antibodies for 1 h at RT. Following, cells were stained with 0.2% Wheat Germ Agglutinin (WGA)-Rhodamine (RL-1022, Vector Laboratories, Inc.) and 0.1% DAPI (62248, Thermo Fisher Scientific) for staining of plasma membrane and nuclei, respectively, according to manufacturer’s recommendations. […]"}, "[1]": {"test_system": "murine CT26 colon carcinoma cells", "assay": "MTT viability assay, CT26, 96 h", "format": "cell-based", "conditions": "wildtype TP53", "protocol": "removed and 100 µL DMSO was added to dissolve the formazan crystals. Photometric quantification was performed at 570 nm with a Multiskan Go 1510 photometer (Thermo Fisher […]\nThe absorbances were blank corrected and converted to relative proliferation. The IC50 values (concentration of 50% growth inhibition) were obtained using a sigmoidal fit of the experimental data and calculated as the mean ± standard deviation of at least three independent experiments, each in at least triplicates.\nHCT116, HCT116 p53KO (each 2.000 cells/well) and CT-26 cells (500 cells/well) were seeded in 100 µL/well into flat-bottom 96-well plates (Starlab) and incubated at 37 °C for 96 h in a humidified incubator (Binder CB210) at 5% CO2. The test compound was dissolved in DMSO, serially diluted in the appropriate cell culture medium (see section above) to final DMSO concentrations of ≤0.5% v/v and 100 µL aliquots added to wells in triplicates. […] Optical densities were measured with a microplate reader (ELx808, Biotek) at a wavelength of 550 nm (and a reference wavelength of 690 nm) and blank corrected. […]\n(each 3.000 cells/well) were seeded in 100 µL/well into flat-bottom 96-well plates (Starlab) and incubated at 37 °C for 24 h in a humidified incubator (Binder CB210) at 5% CO2. […] After 24 h of treatment, plates were measured by MTT assay as described above. […]"}, "p21 [2]": {"test_system": "p21", "assay": "p21 expression, immunofluorescence, CT26", "format": "cell-based, murine", "conditions": "24 h, 1 μM", "protocol": "as §1, §2, §3, §4"}, "p21 [3]": {"test_system": "p21", "assay": "p21 expression, western blotting and immunofluorescence, SW480", "format": "cell-based, human", "conditions": "24 h, 1 μM", "protocol": "overnight at –20 °C. The pellet containing the nuclei was incubated with a hypertonic solution (10 mM Tris-HCl, 1 mM EDTA and 0.5 M NaCl) and subsequently diluted 1:10 with NP-40 buffer (10 mm Tris-HCl, 1 mm EDTA and 0.5% Triton X-100) containing protease inhibitors (1% PMSF, Sigma, and 1% protease and phosphatase inhibitor cocktail, Roche). After centrifugation (960 g, 5 min), the soluble nuclear (NE) proteins were also transferred into new tubes containing ice-cold ethanol (1 : 5, HPLC grade) and precipitated overnight at –20 °C.\nThe precipitated proteins were finally pelleted by centrifugation (5000 g, 30 min, 4 °C), the solution was decanted and the pellet dried under vacuum.\nSamples were then dissolved in lysis buffer (8 M urea, 20% SDS, 1 M TEAB at pH 7.55) and denatured at 95 °C for 5 min. The protein amount was then quantified using a BCA assay. A total of 20 µg protein per sample was used for processing. Proteins were reduced with 50 µL of DTT (64 mM) and carbamidomethylated with 50 µL of iodoacetamide (486 mM). […]\nand allowed to adhere overnight. […] For whole cell lysates, samples were collected, proteins isolated, and Western blotting performed as described in detail previously.5 In brief, protein concentration was determined using the Micro BCA™ Protein Assay Kit (Thermo Fisher Scientific, Waltham, MA, USA). […]"}}, "data": [{"molecule": "CCC1=C2[O][Ru][O]C2(n2cccn2)c2ccccc2C1=O.Cc1ccc(C(C)C)cc1", "note": "(stereo not shown) [Compound 1a, [(3-ethyl-4-oxo-(pyrazolyl)-dihydronaphthalene)(cymene)ruthenium(II)]]", "values": [{"measurement": "TP53 immunofluorescence signal", "setting": "TP53", "value": "decisive loss of TP53 signal intensity"}, {"measurement": "IC50", "setting": "[1]", "value": "800 ± 150", "unit": "nM"}, {"measurement": "p21 expression, CT26", "setting": "p21 [2]", "value": "significantly reduced p21 expression"}, {"measurement": "p21 expression, SW480", "setting": "p21 [3]", "value": "significantly reduced p21 expression"}]}]}
